Source: US4497806A, “Triorganotin compounds, antifungal and antibacterial compositions containing same, and method of using same” (priority 1983, dated 1985)

How the values were obtained:
[1] = test system: Cladosporium carpophilium (ATCC 12117); assay: Antifungal activity, agar plate growth inhibition; assay type: cell-based, Cladosporium carpophilum; conditions: for growth inhibition: 14 days
Procedure: (§1) Dilutions of the sterile solutions were prepared and added to liquified potato dextrose agar (Difco) to yield final concentrations of 100, 10 and 1 μg/ml. The agar, containing the appropriate organotin compound, was poured into sterile petri dishes and allowed to solidify over night. The agar surface was inoculated centrally with a 2 mm^2 portion of the growth from a ten-day-old culture of each fungus of the group consisting of Aspergillus niger, Chaetomium globosum, Cladosporium carpophilum, Fusarium moniliforme, Myrotheium verrucaria, Penicillium notatum, Rhizopus stolonifer, Trichoderma viride and Trichophyton mentagrophytes, or from a two-day-old culture of Saccharomyces cerevisiae. Inoculated plates were incubated for 14 days and observations of growth inhibition were made by measuring the diameters of the colonies present on the agar surface.
(§2) A solvent was included in all evaluations, as were growth controls for all fungal species.
(§3) The following compounds were tested for comparative purposes: [drawing 6] These compounds were tested for antifungal activity in the same manner as the triorganotin 5-nitro-2-furoates of the present invention.

[2] = test system: Fusarium moniliforme (ATCC 10052); assay: Antifungal activity, agar plate growth inhibition; assay type: cell-based; conditions: 14 days
Procedure: as §1, §2, §3

[3] = test system: Saccharomyces cerevisiae (ATCC 9896); assay: Antifungal activity, agar plate growth inhibition; assay type: cell-based; conditions: 14 days
Procedure: as §1, §2, §3

[4] = test system: Trichoderma viride (ATCC 8678); assay: Antifungal activity, agar plate growth inhibition; assay type: cell-based; conditions: 14 days
Procedure: as §1, §2, §3

[5] = test system: Chaetomium globosum (ATCC 6205); assay: Antifungal activity, agar plate growth inhibition; assay type: cell-based; conditions: 14 days
Procedure: as §1, §2, §3

[6] = test system: Trichophyton mentagrophytes (ATCC 9129); assay: Antifungal activity, agar plate growth inhibition; assay type: cell-based; conditions: 14 days
Procedure: as §1, §2, §3

[7] = test system: Aspergillus niger (ATCC 12845); assay: Antifungal activity, agar plate growth inhibition; assay type: cell-based; conditions: 14 days
Procedure: as §1, §2, §3

[8] = test system: Penicillium notatum (ATCC 9179); assay: Antifungal activity, agar plate growth inhibition; assay type: cell-based; conditions: for growth inhibition: 14 days
Procedure: as §1, §2, §3

[9] = test system: Myrothecium verrucaria (ATCC 9095); assay: Antifungal activity, agar plate growth inhibition; assay type: cell-based; conditions: 14 days
Procedure: as §1, §2, §3

[10] = test system: Rhizopus stolonifer (ATCC 10404); assay: Antifungal activity, agar plate growth inhibition; assay type: cell-based; conditions: 14 days
Procedure: as §1, §2, §3

Escherichia coli = assay: Antibacterial activity, agar growth inhibition; assay type: cell-based; conditions: for growth inhibition: Gram-negative, 24 hours at 37° C.
Procedure: (§4) The agar was also needed with a 1:100 dilution of an 18-hour old culture of the desired bacterial species in sterile distilled water. The plates were incubated for 24 hours at 37° C. with each bacterial strain. Observations of bacterial growth inhibition were made following the appropriate incubation period.
(§5) A solvent control was included in all evaluations, as were growth controls for all bacteria species.
(§6) These compounds were tested for antibacterial activity in the same manner as the triorganotin 5-nitro-2-furoates of the present invention.
(§7) All of the bacteria tested were obtained from the culture collection of the Department of Biological Sciences, St. John's University.

Staphylococcus aureus = assay: Antibacterial activity, agar growth inhibition; assay type: cell-based; set-up: key to growth inhibition: -: no inhibition of growth; +: partial inhibition; 2+: complete inhibition; conditions: Gram-positive; for growth inhibition: 24 hours at 37° C.
Procedure: as §4, with “The antibacterial activity of Compounds A-E was investigated by means of incorporating the compounds into sterile tryptic soy agar (Difco) at levels of 100, 10, and 1 μg/ml. The agar” for “The agar”
as §5
Comparative compounds 1-5 above were employed for comparison purposes. These compounds were tested for antibacterial activity in the same manner as the triorganotin 5-nitro-2-furoates of the present invention.
as §7
The ability of Compound B to inhibit the growth of other Gram-positive bacteria, using the same test procedures as described for the antibacterial activity determined in Table III above, is illustrated in Table IV below.

Pseudomonas aeruginosa = assay: Antibacterial activity, agar growth inhibition; assay type: cell-based; conditions: for growth inhibition: Gram-negative, 24 hours at 37° C.
Procedure: as §4, §5, §6, §7

Compound: N#CN=C(Nc1ccccc1)[O][Sn]([c]1ccccc1)([c]1ccccc1)[c]1ccccc1 [Comparative Compound 3, N--phenyl, N'--cyano-O--(triphenylstannyl)-isourea, reference compound]
- growth inhibition ([1]; 1 μg/ml): -
- growth inhibition ([1]; 10 μg/ml): +
- growth inhibition ([1]; 100 μg/ml): +
- growth inhibition ([2]; 1 μg/ml): -
- growth inhibition ([2]; 10 μg/ml): +
- growth inhibition ([2]; 100 μg/ml): +
- growth inhibition ([3]; 1 μg/ml): -
- growth inhibition ([3]; 10 μg/ml): -
- growth inhibition ([3]; 100 μg/ml): 2+
- growth inhibition ([4]; 1 μg/ml): -
- growth inhibition ([4]; 10 μg/ml): -
- growth inhibition ([4]; 100 μg/ml): +
- growth inhibition ([5]; 1 μg/ml): -
- growth inhibition ([5]; 10 μg/ml): +
- growth inhibition ([5]; 100 μg/ml): +
- growth inhibition ([6]; 1 μg/ml): +
- growth inhibition ([6]; 10 μg/ml): +
- growth inhibition ([6]; 100 μg/ml): 2+
- growth inhibition ([7]; 1 μg/ml): -
- growth inhibition ([7]; 10 μg/ml): +
- growth inhibition ([7]; 100 μg/ml): +
- growth inhibition ([8]; 1 μg/ml): -
- growth inhibition ([8]; 10 μg/ml): +
- growth inhibition ([8]; 100 μg/ml): +
- growth inhibition ([9]; 1 μg/ml): +
- growth inhibition ([9]; 10 μg/ml): +
- growth inhibition ([9]; 100 μg/ml): +
- growth inhibition ([10]; 1 μg/ml): -
- growth inhibition ([10]; 10 μg/ml): +
- growth inhibition ([10]; 100 μg/ml): +
- growth inhibition (in words) (Escherichia coli; 100 μg/ml): inactive
- growth inhibition (Escherichia coli; 1 μg/ml): -
- growth inhibition (Escherichia coli; 10 μg/ml): -
- growth inhibition (Escherichia coli; 100 μg/ml): -
- minimum concentration for complete growth inhibition (Staphylococcus aureus): 100 µg/mL
- growth inhibition (Staphylococcus aureus; 1 μg/ml): -

Compound: Trimethyltin 5-nitro-2-furoate [Compound E]
- growth inhibition ([1]; 1 μg/ml): +
- growth inhibition (in words) ([1]; 10 μg/ml): completely inhibited
- growth inhibition ([1]; 10 μg/ml): 2+
- growth inhibition ([1]; 100 μg/ml): 2+
- growth inhibition ([2]; 1 μg/ml): -
- growth inhibition ([2]; 10 μg/ml): +
- growth inhibition ([2]; 100 μg/ml): +
- growth inhibition ([3]; 1 μg/ml): -
- growth inhibition ([3]; 10 μg/ml): -
- growth inhibition ([3]; 100 μg/ml): -
- growth inhibition ([4]; 1 μg/ml): +
- growth inhibition ([4]; 10 μg/ml): +
- growth inhibition ([4]; 100 μg/ml): +
- growth inhibition ([5]; 1 μg/ml): -
- growth inhibition ([5]; 10 μg/ml): +
- growth inhibition ([5]; 100 μg/ml): +
- growth inhibition ([6]; 1 μg/ml): +
- growth inhibition ([6]; 10 μg/ml): +
- growth inhibition ([6]; 100 μg/ml): +
- growth inhibition ([7]; 1 μg/ml): -
- growth inhibition ([7]; 10 μg/ml): +
- growth inhibition ([7]; 100 μg/ml): +
- growth inhibition ([8]; 1 μg/ml): -
- growth inhibition ([8]; 10 μg/ml): +
- growth inhibition (in words) ([8]; 100 μg/ml): completely inhibited
- growth inhibition ([8]; 100 μg/ml): 2+
- growth inhibition ([9]; 1 μg/ml): +
- growth inhibition ([9]; 10 μg/ml): +
- growth inhibition ([9]; 100 μg/ml): 2+
- growth inhibition ([10]; 1 μg/ml): +
- growth inhibition ([10]; 10 μg/ml): +
- growth inhibition ([10]; 100 μg/ml): +
- activity towards the Gram-negative bacterium (in words) (Pseudomonas aeruginosa): showed activity
- growth inhibition (Pseudomonas aeruginosa; 1 μg/ml): -
- growth inhibition (Pseudomonas aeruginosa; 10 μg/ml): -
- activity towards the Gram-negative bacterium (in words) (Escherichia coli): showed activity
- growth inhibition (in words) (Escherichia coli; 100 μg/ml): completely inhibited
- growth inhibition (Escherichia coli; 1 μg/ml): -
- growth inhibition (Escherichia coli; 10 μg/ml): -
- growth inhibition (Staphylococcus aureus; 1 μg/ml): -
- growth inhibition (Staphylococcus aureus; 10 μg/ml): -

Compound: Tricyclohexyltin 5-nitro-2-furoate [Compound C]
- growth inhibition ([1]; 1 μg/ml): +
- growth inhibition ([1]; 10 μg/ml): +
- growth inhibition ([1]; 100 μg/ml): +
- growth inhibition ([2]; 1 μg/ml): +
- growth inhibition ([2]; 10 μg/ml): +
- growth inhibition ([2]; 100 μg/ml): +
- growth inhibition ([3]; 1 μg/ml): -
- growth inhibition ([3]; 10 μg/ml): -
- growth inhibition ([3]; 100 μg/ml): -
- growth inhibition ([4]; 1 μg/ml): +
- growth inhibition ([4]; 10 μg/ml): +
- growth inhibition ([4]; 100 μg/ml): +
- growth inhibition ([5]; 1 μg/ml): +
- growth inhibition ([5]; 10 μg/ml): +
- growth inhibition ([5]; 100 μg/ml): +
- growth inhibition ([6]; 1 μg/ml): +
- growth inhibition ([6]; 10 μg/ml): +
- growth inhibition ([6]; 100 μg/ml): +
- growth inhibition ([7]; 1 μg/ml): +
- growth inhibition ([7]; 10 μg/ml): +
- growth inhibition ([7]; 100 μg/ml): +
- growth inhibition ([8]; 1 μg/ml): +
- growth inhibition ([8]; 10 μg/ml): +
- growth inhibition ([8]; 100 μg/ml): 2+
- growth inhibition ([9]; 1 μg/ml): +
- growth inhibition ([9]; 10 μg/ml): +
- growth inhibition ([9]; 100 μg/ml): +
- growth inhibition ([10]; 1 μg/ml): -
- growth inhibition ([10]; 10 μg/ml): +
- growth inhibition ([10]; 100 μg/ml): +
- growth inhibition (Pseudomonas aeruginosa; 1 μg/ml): -
- growth inhibition (Pseudomonas aeruginosa; 10 μg/ml): -
- growth inhibition (Pseudomonas aeruginosa; 100 μg/ml): -
- growth inhibition (Escherichia coli; 1 μg/ml): -
- growth inhibition (Escherichia coli; 10 μg/ml): -
- growth inhibition (Escherichia coli; 100 μg/ml): -
